Experimental data from patent US4585773A, “Isoindolinyl-alkyl-piperazines” (Bristol-Myers Company, priority 1984, dated 1986).
Read-outs that look alike come from different tables or passages of the source.

Key:
[1] = test system: DOCA-salt Hypertensive Rat; assay: antihypertensive activity, DOCA-salt Hypertensive Rat (Table II); type: in vivo; conditions: for ΔBP 4 hours / ΔHR 4 hours: DOCA
Method: DOCA-salt Hypertensive Rat
Male rats initially weighing 80-100 g, are made hypertensive by surgically implanting two 50 mg pellets of deoxycorticosterone acetate (DOCA) under the skin of the abdomen of each rat and providing 1% saline ad libitum. After three weeks, the 1% saline is replaced with distilled water. One week later, animals are anesthetized with methoxyflurane and a catheter advanced into the aorta via the left common corotid artery to record mean arterial blood pressure (MABP) and heart rate. The heparin-filled catheter is passed beneath the skin and exteriorized behind the head. Two days later, MABP and heart rate are determined before and four hours after oral administration of vehicle (0.25% Methocel in 0.9% saline) or test compound suspended in vehicle at a dose volume equivalent to 5 ml/kg.
Testing was carried out on the compounds of Examples I-XII for antihypertensive activity. In the case of all the compounds testing was carried out on the Spontaneously Hypertensive rat as described hereinbefore. In the case of the compounds of Examples I-IV testing was also carried out on the DOCA-salt Hypertensive Rat. The compound of Example I was tested as its monochloride 2-propanolate hydrate, i.e. as C22 H27 ClN4 O4 S.HCl.0.2(CH3)2 CHOH.0.15H2 O in Tests 1-5; and as the 3/4 mole hydrochloride, i.e. C22 H27 ClN4 O4 S: 3/4 HCl in Tests 3a, 4a, 5a-5d. Test results are set forth in Table II below wherein SHR stands for Spontaneously Hypertensive rat, DOCA stands for DOCA-salt Hypertensive Rat, ΔBP stands for the change in systolic blood pressure in mm Hg, ΔHR stands for the change in mean heart rate in beats per minute and the times set forth are the times after dosing. A peak change in ΔBP of more than 20 is considered as indicating activity.

[2] = conscious rat diuretic screen of Lipschitz (Table I); type: in vivo, rat (female Sprague Dawley; male Okamoto-Aoki); conditions: for response vs control in vivo at 0.3 mg/kg / response vs control in vivo at 3 mg/kg / response vs control in vivo at 30 mg/kg / response vs control in vivo at 10 mg/kg: Rattus norvegicus, po
How it was run: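 Conscious rats (female Sprague Dawley or male Okamoto-Aoki) received test compound orally in dose-response fashion; urine volume, Na+ and K+ excretion were measured. Values are ratios of amounts excreted by treated versus control rats.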

α1 = assay: in vitro α1 binding, [3H]WB-4101 (Table IV); conditions: for IC50: [3H]WB-4101, brain tissue, 50 mM Hepes.KOH, pH 7.4, read-out: α1 Binding IC50
Method: (§1) In this Example the compounds of Examples I-XI were tested in vitro for α1 and α2 binding. The compound of Example I was tested as its monochloride 2-propanolate hydrate, i.e. as C22 […] CLN4 O4 S .HCl.0.2(CH3)2 CHOH 0.15H2 O. In the testing specific brain tissues were prepared as sources of binding sites. Aliquots of the washed members are incubated with a low concentration of […]. After incubation at suitable temperature, the reaction mixture is treated to separate the membrane-bound radioligand Radioactivity is measured. Linear regression analysis of the probit value for the percent of binding occurring in the presence of varying concentrations of the compound of interest plotted against the concentration of the compound yields concentrations which inhibit 50% specific binding, the IC50. The assay buffer is 50 mM Hepes.KOH, pH 7.4. The ligand is [^3 H]WB-4101 from New England Nuclear for α1 and [^3 H]Clonidine from New England Nuclear for α2. The results are considered against phentolamine methanesulfonate (Reference) which is considered a good α-binder.

α2 = assay: in vitro α2 binding, [3H]Clonidine (Table IV); conditions: for IC50: [3H]Clonidine, brain tissue, 50 mM Hepes.KOH, pH 7.4, read-out: α2 Binding IC50
Method: as §1

[3] = 0.3 mg/kg oral, as 3/4 mole hydrochloride
[4] = 3.0 mg/kg oral, as 3/4 mole hydrochloride
[5] = 30 mg/kg oral, as 3/4 mole hydrochloride
[6] = 100 mg/kg oral, as 3/4 mole hydrochloride
[7] = 3 mg/kg oral, male Okamoto-Aoki rats
[8] = 30 mg/kg oral, female Sprague Dawley rats
[9] = 30 mg/kg oral, male Okamoto-Aoki rats
[10] = 3 mg/kg oral, male Okamoto-Aoki rats, read-out: K+ Ratio
[11] = 3 mg/kg oral, male Okamoto-Aoki rats, read-out: Na+ Ratio
[12] = 3 mg/kg oral, male Okamoto-Aoki rats, read-out: Volume Ratio
[13] = 30 mg/kg oral, female Sprague Dawley rats, read-out: K+ Ratio
[14] = 30 mg/kg oral, female Sprague Dawley rats, read-out: Na+ Ratio
[15] = 30 mg/kg oral, female Sprague Dawley rats, read-out: Volume Ratio
[16] = 30 mg/kg oral, male Okamoto-Aoki rats, read-out: K+ Ratio
[17] = 30 mg/kg oral, male Okamoto-Aoki rats, read-out: Na+ Ratio
[18] = 30 mg/kg oral, male Okamoto-Aoki rats, read-out: Volume Ratio

IC50 (α1) | α2 binding activity (in words) (α2) | IC50 (α2) | Structure (SMILES) | ΔBP 4 hours ([1]; 30 mg/kg oral) | ΔHR 4 hours ([1]; 30 mg/kg oral) | Urinary Na/K (Test Compound) [2, 7] | Urinary Na/K (Test Compound) [2, 8] | Urinary Na/K (Test Compound) [2, 9] | response vs control in vivo at 3 mg/kg [2, 10] | response vs control in vivo at 3 mg/kg [2, 11] | response vs control in vivo at 3 mg/kg [2, 12] | response vs control in vivo at 30 mg/kg [2, 13] | response vs control in vivo at 30 mg/kg [2, 14] | response vs control in vivo at 30 mg/kg [2, 15] | response vs control in vivo at 30 mg/kg [2, 16] | response vs control in vivo at 30 mg/kg [2, 17] | response vs control in vivo at 30 mg/kg [2, 18] | also measured
1.48 nM | α2 binding activity | 555 nM | COc1ccccc1N1CCN(CCCN2Cc3cc(Cl)c(S(N)(=O)=O)cc3C2=O)CC1 [Example I, 6-chloro-2,3-dihydro-2-[3-[4-(2-methoxyphenyl)-1-piperazinyl]propyl]-3-oxo-1H-isoindole-5-sulfonamide] | -49 ± 9 mm Hg | 59 ± 28 beats per minute | 1.14 | 2.98 | 1.56 | 103% | 168% | 204% | 106% | 136% | 98% | 117% | 261% | 251% | antihypertensive activity (in words) ([1]; DOCA-hypertensive rat): demonstrates activity in the DOCA-hypertensive rat; ΔBP 4 hours [1, 3]: -14 ± 5 mm Hg; ΔHR 4 hours [1, 3]: -8 ± 20 beats per minute; ΔBP 4 hours [1, 4]: -15 ± 6 mm Hg; ΔHR 4 hours [1, 4]: -6 ± 24 beats per minute; ΔBP 4 hours [1, 5]: -53 ± 9 mm Hg; ΔHR 4 hours [1, 5]: 53 ± 26 beats per minute; ΔBP 4 hours [1, 6]: -75 ± 3 mm Hg; ΔHR 4 hours [1, 6]: 23 ± 32 beats per minute; Urinary Na/K (Test Compound) ([2]; 0.3 mg/kg oral, male Okamoto-Aoki rats): 0.81; Urinary Na/K (Test Compound) ([2]; 3 mg/kg oral, female Sprague Dawley rats): 2.55; natriuretic response (in words) ([2]; 3.0 to 30 mg/kg body weight): dose-dependent natriuretic response; response vs control in vivo at 0.3 mg/kg ([2]; 0.3 mg/kg oral, male Okamoto-Aoki rats, read-out: K+ Ratio): 78%; response vs control in vivo at 0.3 mg/kg ([2]; 0.3 mg/kg oral, male Okamoto-Aoki rats, read-out: Na+ Ratio): 96%; response vs control in vivo at 0.3 mg/kg ([2]; 0.3 mg/kg oral, male Okamoto-Aoki rats, read-out: Volume Ratio): 82%; response vs control in vivo at 3 mg/kg ([2]; 3 mg/kg oral, female Sprague Dawley rats, read-out: K+ Ratio): 100%; response vs control in vivo at 3 mg/kg ([2]; 3 mg/kg oral, female Sprague Dawley rats, read-out: Na+ Ratio): 108%; response vs control in vivo at 3 mg/kg ([2]; 3 mg/kg oral, female Sprague Dawley rats, read-out: Volume Ratio): 93%; α1 binding activity (in words) (α1; listed as MJ 15037): demonstrates activity in binding both α1 and α2 sites; α2 binding activity (in words) (α2; listed as MJ 15037): demonstrates activity in binding both α1 and α2 sites
23.4 nM | α2 binding activity | 806 nM | COc1ccccc1N1CCN(CCN2Cc3cc(Cl)c(S(N)(=O)=O)cc3C2=O)CC1 [Example III, 6-Chloro-2,3-dihydro-2-[2-[4-(2-methoxyphenyl)-1-piperazinyl]ethyl]-3-oxo-1H-isoindole-5-sulfonamide] | -62 ± 13 mm Hg | 63 ± 32 beats per minute | 6.1 | 3.44 | 6.7 | 121% | 113% | 122% | 116% | 134% | 116% | 130% | 135% | 163% | Urinary Na/K (Test Compound) ([2]; 10 mg/kg oral, male Okamoto-Aoki rats): 6.7; response vs control in vivo at 10 mg/kg ([2]; 10 mg/kg oral, male Okamoto-Aoki rats, read-out: K+ Ratio): 115%; response vs control in vivo at 10 mg/kg ([2]; 10 mg/kg oral, male Okamoto-Aoki rats, read-out: Na+ Ratio): 116%; response vs control in vivo at 10 mg/kg ([2]; 10 mg/kg oral, male Okamoto-Aoki rats, read-out: Volume Ratio): 126%
